Where a name gives a salt, the structure may show the parent alone. Read-outs that look alike come from different tables or passages of the source.
Biological target: T1, human histamine H4 receptor (Homo sapiens, UniProt Q9H3N8)
T1 construct: expressed in transfected cells; host or cells: SK-N-MC cells or COS7 cells, transiently transfected; cell membranes used
Assay: Binding Assay on Recombinant Human Histamine H4 Receptor
How it was run: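 Membranes from SK-N-MC or COS7 cells transiently transfected with human H4 receptor were incubated with ³H-histamine (5-70 nM); nonspecific binding defined with 10,000 nM histamine. Bound radioactivity collected by GF/C filtration and scintillation counting; test compounds assessed by displacement of ³H-ligand binding across concentrations.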

[1] = competition binding with 3H-histamine (5 nM), membranes of SK-N-MC or COS7 cells expressing human H4 receptor, Cheng-Prusoff, KD 5 nM, average of results obtained, read-out: Ki

Row | Ki [1] [nM] | Compound | Ki [nM]
1 | 20 | CN[C@@H]1CCN(c2nc(N)nc3c2oc2cccc(OC)c23)C1 [Example 100, (R)-9-Methoxy-4-(3-methylamino-pyrrolidin-1-yl)-benzo[4,5]furo[3,2-d]pyrimidin-2-ylamine trifluoroacetic acid salt] | 
2 | 7.8 | CN1CCN(c2nc(N)nc3c2oc2ccc(Cl)c(Cl)c23)CC1 [Example 101, 8,9-Dichloro-4-(4-methyl-piperazin-1-yl)-benzo[4,5]furo[3,2-d]pyrimidin-2-ylamine trifluoroacetic acid salt] | 
3 | 12 | CN[C@@H]1CCN(c2nc(N)nc3c2oc2ccc(OC)cc23)C1 [Example 102, (R)-8-Methoxy-4-(3-methylamino-pyrrolidin-1-yl)-benzo[4,5]furo[3,2-d]pyrimidin-2-ylamine trifluoroacetic acid salt] | 
4 | 3.4 | NCC1CN(c2nc(N)nc3c2oc2ccc(Cl)cc23)C1 [Example 103, 4-(3-Aminomethyl-azetidin-1-yl)-8-chloro-benzo[4,5]furo[3,2-d]pyrimidin-2-ylamine trifluoroacetic acid salt] | 
5 | 61 | Nc1nc(N2CCNCC2)c2oc3ccc(Cl)c(Cl)c3c2n1 [Example 104, 8,9-Dichloro-4-piperazin-1-yl-benzo[4,5]furo[3,2-d]pyrimidin-2-ylamine trifluoroacetic acid salt] | 
6 |  | CN1C[C@@H]2C[C@H]1CN2c1nc(N)nc2c1oc1ccc(Cl)cc12 [Example 106, (S,S)-8-Chloro-4-(5-methyl-2,5-diaza-bicyclo[2.2.1]hept-2-yl)-benzo[4,5]furo[3,2-d]pyrimidin-2-ylamine trifluoroacetic acid salt] | 11
7 | 360 | COc1ccc2oc3c(N4CCC[C@H](N)C4)nc(N)nc3c2c1 [Example 107, (S)-4-(3-Amino-piperidin-1-yl)-8-methoxy-benzo[4,5]furo[3,2-d]pyrimidin-2-ylamine trifluoroacetic acid salt] | 
8 | 2.6 | Nc1nc(N2CC[C@@H](N)C2)c2oc3ccccc3c2n1 [Example 108, (R)-4-(3-Amino-pyrrolidin-1-yl)-benzo[4,5]furo[3,2-d]pyrimidin-2-ylamine] | 
9 | 260 | CN[C@@H]1CCN(c2nc(N)nc3c2oc2ncc(Cl)cc23)C1 [Example 109, (R)-3-Chloro-8-(3-methylamino-pyrrolidin-1-yl)-9-oxa-1,5,7-triaza-fluoren-6-ylamine] | 
10 | 1820 | Nc1nc(NCC2CNC2)c2oc3ccc(Cl)cc3c2n1 [Example 110, N^4-Azetidin-3-ylmethyl-8-chloro-benzo[4,5]furo[3,2-d]pyrimidine-2,4-diamine trifluoroacetic acid salt] | 
11 | 330 | Nc1nc(NC2CNC2)c2oc3ccc(Cl)cc3c2n1 [Example 111, N^4-Azetidin-3-yl-8-chloro-benzo[4,5]furo[3,2-d]pyrimidine-2,4-diamine trifluoroacetic acid salt] | 
12 | 41 | NCCNc1nc(N)nc2c1oc1ccc(Cl)cc12 [Example 112, N^4-(2-Amino-ethyl)-8-chloro-benzo[4,5]furo[3,2-d]pyrimidine-2,4-diamine trifluoroacetic acid salt] | 
13 | 4.3 | CN1CCN(c2nc(NCCO)nc3c2oc2ccc(Cl)cc23)CC1 [Example 115, 2-[8-Chloro-4-(4-methyl-piperazin-1-yl)-benzo[4,5]furo[3,2-d]pyrimidin-2-ylamino]-ethanol] | 
14 | 68 | CN1CCN(c2nc(NCCO)nc3c2oc2ccccc23)CC1 [Example 116, 2-[4-(4-Methyl-piperazin-1-yl)-benzo[4,5]furo[3,2-d]pyrimidin-2-ylamino]-ethanol] | 
15 | 200 | COc1ccc2oc3c(N4CCN(C)CC4)nc(NCCO)nc3c2c1 [Example 118, 2-[8-Methoxy-4-(4-methyl-piperazin-1-yl)-benzo[4,5]furo[3,2-d]pyrimidin-2-ylamino]-ethanol] | 

Row | Compound | Ki [1] [nM] | Ki [nM]
16 | COc1ccc2oc3c(N4C[C@@H]5C[C@H]4CN5)nc(N)nc3c2c1 [Example 113, (S,S)-4-(2,5-Diaza-bicyclo[2.2.1]hept-2-yl)-8-methoxy-benzo[4,5]furo[3,2-2]pyrimidin-2-ylamine trifluoroacetic acid salt] | 420 | 

— patent US8030321B2, “Benzofuro- and benzothienopyrimidine modulators of the histamine H4 receptor” (Janssen Pharmaceutica, NV, priority 2006, dated 2011)
